Data on eleven molecules can be found in patent US7732471B2, “6-oxazol-4-ylmetholmethoxy-alko-alkoxymethyl substituted benzoic acid derivatives forming peroxisome proliferator—activated receptor (PPAR) ligands, process for their preparation and methods of use thereof” (Sanofi-Aventis, priority 2005, dated 2010).

Assay [1] deals with T1, human PPARalpha (Homo sapiens, UniProt Q07869).
T1 construct: human PPARalpha receptor (amino acids S167-Y468); expressed in transfected cells; host or cells: HEK cells, stably transfected (pcDNA3 construct)
T1 sequence (Q07869 167-468): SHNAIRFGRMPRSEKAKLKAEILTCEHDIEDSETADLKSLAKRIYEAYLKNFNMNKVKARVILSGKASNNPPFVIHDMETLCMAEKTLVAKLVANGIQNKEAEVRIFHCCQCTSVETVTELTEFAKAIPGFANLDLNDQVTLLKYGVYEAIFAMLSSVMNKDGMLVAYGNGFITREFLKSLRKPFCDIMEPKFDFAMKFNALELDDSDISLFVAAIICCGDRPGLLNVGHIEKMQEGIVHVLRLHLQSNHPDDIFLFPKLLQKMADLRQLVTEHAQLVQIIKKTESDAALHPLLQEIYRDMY
The assay can be described thus: Cellular PPARalpha assay (stably transfected HEK luciferase reporter cell line). The format is cell-based. Conditions: PPARalpha reporter cell line (HEK, GR-GAL4-humanPPARalpha-LBD), 24 h incubation. The method, then: Determination of EC50 Values of PPAR Agonists in the Cellular PPARalpha Assay
The potency of substances which bind to human PPARalpha and activate it in an agonistic manner is analyzed using a stably transfected HEK cell line (HEK=human embryonic kidney) which is referred to here as PPARalpha reporter cell line. It contains two genetic elements, a luciferase reporter element (pdeltaM-GAL4-Luc-Zeo) and a PPARalpha fusion protein (GR-GAL4-humanPPARalpha-LBD) which mediates expression of the luciferase reporter element depending on a PPARalpha ligand. The stably and constitutively expressed fusion protein GR-GAL4-humanPPARalpha-LBD binds in the cell nucleus of the PPARalpha reporter cell line via the GAL4 protein portion to the GAL4 DNA binding motifs 5′-upstream of the luciferase reporter element which is stably integrated in the genome of the cell line. There is only little expression of the luciferase reporter gene without addition of a PPARalpha ligand if fatty acid-depleted fetal calf serum (cs-FCS) is used in the assay. PPARalpha ligands bind and activate the PPARalpha fusion protein and thereby bring about expression of the luciferase reporter gene. The luciferase which is formed can be detected by means of chemiluminescence via an appropriate substrate.
The PPARalpha reporter cell line was prepared in two steps. Firstly, the luciferase reporter element was constructed and stably transfected into HEK cells. For this purpose, five binding sites of the yeast transcription factor GAL4 (in each case 5′-CGGAGTACTGTCCTCCGAG-3′) were cloned in 5′-upstream of a 68 bp-long minimal MMTV promoter (Genbank Accession #V01175). The minimal MMTV promoter section contains a CCAAT box and a TATA element in order to enable efficient transcription by RNA polymerase II. The cloning and sequencing of the GAL4-MMTV construct took place in analogy to the description of Sambrook J. et. al. (Molecular cloning, Cold Spring Harbor Laboratory Press, 1989). Then the complete Photinus pyralis luciferase gene (Genbank Accession #M15077) was cloned in 3′-downstream of the GAL4-MMTV element. After sequencing, the luciferase reporter element consisting of five GAL4 binding sites, MMTV promoter and luciferase gene was subcloned into a plasmid which confers zeozin resistance in order to obtain the plasmid pdeltaM-GAL4-Luc-Zeo. This vector was transfected into HEK cells in accordance with the statements in Ausubel, F. M. et al. (Current protocols in molecular biology, Vol. 1-3, John Wiley & Sons, Inc., 1995).
In a second step, the PPARalpha fusion protein (GR-GAL4-humanPPARalpha-LBD) was introduced into the stable cell clone described. For this purpose, initially the cDNA coding for the N-terminal 76 amino acids of the glucocorticoid receptor (Genbank Accession #P04150) was linked to the cDNA section coding for amino acids 1-147 of the yeast transcription factor GAL4 (Genbank Accession #P04386). The cDNA of the ligand-binding domain of the human PPARalpha receptor (amino acids S167-Y468; Genbank Accession #S74349) was cloned in at the 3′ end of this GR-GAL4 construct. The fusion construct prepared in this way (GR-GAL4-humanPPARalpha-LBD) was subcloned into the plasmid pcDNA3 (from Invitrogen) in order to enable constitutive expression therein by the cytomegalovirus promoter. This plasmid was linearized with a restriction endonuclease and stably transfected into the previously described cell clone containing the luciferase reporter element. The finished PPARalpha reporter cell line which contains a luciferase reporter element and constitutively expresses the PPARalpha fusion protein (GR-GAL4-humanPPARalpha-LBD) was isolated by selection with zeozin (0.5 mg/ml) and G418 (0.5 mg/ml).
The activity of PPARalpha agonists is determined in a 3-day assay which is described below: […]

The target in assay [2] is T2, human PPARgamma (Homo sapiens, UniProt P37231).
T2 construct: human PPARgamma receptor (amino acids I152-Y475); expressed in transfected cells; host or cells: HEK cells, transiently transfected with pcDNA3-GAL4-humanPPARgammaLBD
T2 sequence (P37231 182-505 limits assumed): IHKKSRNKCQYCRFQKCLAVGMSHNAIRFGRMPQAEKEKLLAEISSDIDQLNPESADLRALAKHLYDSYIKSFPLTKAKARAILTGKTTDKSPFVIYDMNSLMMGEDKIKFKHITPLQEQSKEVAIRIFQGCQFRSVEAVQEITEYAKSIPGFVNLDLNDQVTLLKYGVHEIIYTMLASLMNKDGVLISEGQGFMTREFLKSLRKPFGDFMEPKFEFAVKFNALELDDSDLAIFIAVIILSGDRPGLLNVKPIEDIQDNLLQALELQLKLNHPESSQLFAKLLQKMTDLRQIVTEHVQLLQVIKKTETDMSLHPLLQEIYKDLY
Kind of assay: Cellular PPARgamma assay (transiently transfected HEK cells, luciferase reporter). The format is cell-based. As to conditions: HEK cells transiently transfected with GAL4-humanPPARgammaLBD, 48 h incubation, firefly/Renilla luciferase ratio. The source says: Determination of EC50 Values of PPAR Agonists in the Cellular PPARgamma Assay
A transient transfection system is employed to determine the cellular PPARgamma activity of PPAR agonists. It is based on the use of a luciferase reporter plasmid (pGL3basic-5xGAL4-TK) and of a PPARgamma expression plasmid (pcDNA3-GAL4-humanPPARgammaLBD). Both plasmids are transiently transfected into human embryonic kidney cells (HEK cells). There is then expression in these cells of the fusion protein GAL4-humanPPARgammaLBD which binds to the GAL4 binding sites of the reporter plasmid. In the presence of a PPARgamma-active ligand, the activated fusion protein GAL4-humanPPARgammaLBD induces expression of the luciferase reporter gene, which can be detected in the form of a chemiluminescence signal after addition of a luciferase substrate. As a difference from the stably transfected PPARalpha reporter cell line, in the cellular PPARgamma assay the two components (luciferase reporter plasmid and PPARgamma expression plasmid) are transiently transfected into HEK cells because stable and permanent expression of the PPARgamma fusion protein is cytotoxic.
The luciferase reporter plasmid pGL3basic-5xGAL4-TK is based on the vector pGL3basic from Promega. The reporter plasmid is prepared by cloning five binding sites of the yeast transcription factor GAL4 (each binding site with the sequence 5′-CTCGGAGGACAGTACTCCG-3′), together with a 160 bp-long thymidine kinase promoter section (Genbank Accession #AF027128) 5′-upstream into pGL3basic. 3′-downstream of the thymidine kinase promoter is the complete luciferase gene from Photinus pyralis (Genbank Accession #M15077), which is already a constituent of the plasmid pGL3basic used. The cloning and sequencing of the reporter plasmid pGL3basic-5xGAL4-TK took place in analogy to the description in Sambrook J. et. al. (Molecular cloning, Cold Spring Harbor Laboratory Press, 1989).
The PPARgamma expression plasmid pcDNA3-GAL4-humanPPARgammaLBD was prepared by first cloning the cDNA coding for amino acids 1-147 of the yeast transcription factor GAL4 (Genbank Accession #P04386) into the plasmid pcDNA3 (from Invitrogen) 3′-downstream of the cytomegalovirus promoter. Subsequently, the cDNA of the ligand-binding domain (LBD) of the human PPARgamma receptor (amino acids I152-Y475; Accession #g1480099) 3′-downstream of the GAL4 DNA binding domain was cloned. Cloning and sequencing of the PPARgamma expression plasmid pcDNA3-GAL4-humanPPARgammaLBD again took place in analogy to the description in Sambrook J. et. al. (Molecular cloning, Cold Spring Harbor Laboratory Press, 1989). Besides the luciferase reporter plasmid pGL3basic-5xGAL4-TK and the PPARgamma expression plasmid pcDNA3-GAL4-humanPPARgammaLBD, also used for the cellular PPARgamma assay are the reference plasmid pRL-CMV (from Promega) and the plasmid pBluescript SK(+) from Stratagene. All four plasmids were prepared using a plasmid preparation kit from Qiagen, which ensured a plasmid quality with a minimal endotoxin content, before transfection into HEK cells.
The activity of PPARgamma agonists is determined in a 4-day assay which is described below. Before the transfection, HEK cells are cultivated in DMEM medium (#41965-039, Invitrogen) which is mixed with the following additions: 10% FCS (#16000-044, Invitrogen), 1% penicillin-streptomycin solution (#15140-122, Invitrogen) and 2 mM L-glutamine (#25030-024, Invitrogen).
A transfection mixture (solution A) which contains all four plasmids previously described in a DMEM medium, is prepared. The following amounts are used to make up 3 ml of solution A for each 96-well microtiter plate for an assay: 2622 μl of antibiotic- and serum-free DMEM medium (#41965-039, Invitrogen), 100 μl of reference plasmid pRL-CMV (1 ng/μl), 100 μl of luciferase reporter plasmid pGL3basic-5xGAL4-TK (10 ng/μl), 100 μl of PPARgamma expression plasmid pcDNA3-GAL4-humanPPARgammaLBD (100 ng/μl) and 78 μl of plasmid pBluescript SK(+) (500 ng/μl). […]
On the technique in general: In a reporter assay the amount or activity of a reporter protein is the signal.

As a reminder, the EC50 is the concentration that produces a half-maximal response. Take `Cc1ccc(-c2nc(COCCCOCc3cccc(C)c3C(=O)O)c(-c3ccccc3)o2)cc1` [Example 23, 2-Methyl-6-[3-(5-phenyl-2-p-tolyloxazol-4-ylmethoxy)propoxymethyl]benzoic acid]: the EC50 was 88 nM in assay [1] and 1800 nM in assay [2].

On to `CCc1oc(-c2cccc(OC)c2)nc1COCCCOCc1cccc(C)c1C(=O)O` [Example 17], for which the EC50 was 3.7 nM in assay [1] and 91 nM in assay [2].

As to `Cc1ccc(-c2nc(COCCCOCc3cccc(C)c3C(=O)O)c(C3CCCCC3)o2)cc1` [Example 22, 2-Methyl-6-{3-[5-cyclohexyl-2-p-tolyloxazol-4-ylmethoxy]propoxymethyl}benzoic acid], the EC50 was found to be 22 nM in assay [1] and 710 nM in assay [2].

As for `Cc1cccc(COCCCOCc2coc(-c3ccccc3)n2)c1C(=O)O` [*, reference compound], the EC50 in assay [1] is 1 nM; in assay [2], > 10000 nM.

Take `COc1cccc(-c2nc(COCCCCOCc3cccc(C)c3C(=O)O)c(C)o2)c1` [Example 31, 2-Methyl-6-{4-[2-(3-methoxyphenyl)-5-methyloxazol-4-ylmethoxy]butoxymethyl}-benzoic acid]: the EC50 in assay [1] is 1.4 nM; in assay [2], 17 nM.

For the molecule `COc1cccc(-c2nc(COCC(C)(C)COCc3cccc(C)c3C(=O)O)c(C)o2)c1` [Example 27, 2-{3-[2-(3-Methoxyphenyl)-5-methyloxazol-4-ylmethoxy]-2,2-dimethylpropoxymethyl}-6-methylbenzoic acid], the EC50 was 13 nM in assay [1] and 390 nM in assay [2].

For the molecule `Cc1cccc(COCCCCOCc2nc(-c3cccc(C(F)(F)F)c3)oc2C(C)C)c1C(=O)O` [Example 32, 2-{4-[5-Isopropyl-2-(3-trifluoromethylphenyl)oxazol-4-ylmethoxy]butoxymethyl}-6-methylbenzoic acid], the EC50 in assay [1] is 1.6 nM; in assay [2], 72 nM.

For `Cc1cccc(COCCCOCc2nc(-c3ccc(-c4ccccc4)cc3)oc2C)c1C(=O)O` [Example 3, 2-Methyl-6-[3-(5-methyl-2-p-biphenyloxazol-4-ylmethoxy)propoxymethyl]benzoic acid], the EC50 was found to be 4.2 nM in assay [1] and 150 nM in assay [2].

With `Cc1cccc(COCCCCOCc2nc(-c3ccc(-c4ccccc4)cc3)oc2C)c1C(=O)O` [Example 33, 2-Methyl-6-[4-(2-p-biphenyl-5-methyloxazol-4-ylmethoxy)butoxymethyl]benzoic acid], the EC50 in assay [1] amounted to 21 nM; in assay [2], 14 nM.

`COc1ccc(-c2nc(COCCCOCc3cccc(C)c3C(=O)O)c(C)o2)cc1OC` [Example 11, 2-Methyl-6-{3-[5-methyl-2-(3,4-dimethoxyphenyl)oxazol-4-ylmethoxy]propoxymethyl}-benzoic acid]: the concentration for a half-maximal effect (EC50) came to 8.7 nM in assay [1] and 630 nM in assay [2].

With `Cc1cccc(COCCCOCc2nc(-c3ccc(Oc4ccccc4)cc3)oc2C)c1C(=O)O` [Example 8, 2-Methyl-6-{3-[5-methyl-2-(4-phenoxyphenyl)oxazol-4-ylmethoxy]propoxymethyl}-benzoic acid], the EC50 was found to be 11 nM in assay [1] and 40 nM in assay [2].
